From patent EP0194571A1, “Heterocyclic disulfides, process for their preparation and pharmaceutical preparations containing them” (HOECHST AKTIENGESELLSCHAFT, priority 1985, dated 1986)

Tests used:
[1] = system: Maus-Peritonealmakrophagen; assay: Pinocytosis of colloidal gold (198Au) by peritoneal macrophages from treated mice; assay type: in vivo, NMRI-Mäuse; conditions: uptake of colloidal 198Au
Description: Hier wurde der Einfluß der nach Ausführungsbeispiel 8 erhaltenen Prüfsubstanz auf die Stimulation von Peritonealmakrophagen bei 6- 8 Wochen alten NMRI-Mäusen untersucht. Mäuseweibchen erhielten auf parenteralem oder oralem Wege die Prüfsubstanz in einer Dosis von 25 mg/kg, 50 mg/kg, 100 mg/kg und 200 mg/kg. Der Kontrollgruppe wurde gepufferte Kochsalzlösung verabreicht. Drei Tage nach den Injektionen wurden die Mäuse getötet, und es wurden die Peritonealmakrophagen der Tiere auf ihren Aktivierungszustand hin untersucht. Als Maß der Makrophagenaktivierung wurde zum einen die Sekretion der lyosomalen Enzyme (ß-Galactosidase, ß-Glucuronidase, N-Acetyl-ß-D-Glucosaminidase) bestimmt. Auf der anderen Seite konnte in vergleichbaren Makrophagenkulturen die Pinozytose durch die Aufnahme von kolloidalem Gold (^19^8Au) - wie sie dem Fachmann bekannt ist - untersucht werden. Die Höhe des oxidativen Stoffwechsels bei Makrophagen gilt als ein weiteres Maß für ihren Aktivierungszustand. Gemessen wird diese Aktivität unter Zuhilfenahme des Biolumaten durch Bestimmung der Chemolumineszenz.
Zu diesem Zweck wurden entweder in Petrischalen von 30 mm Durchmesser 3 x 10^6 Makrophagen mit 1 ml TC 199-Kulturmedium oder aber 10^6 Makrophagen mit 100 µl in Rundbogen-Polyäthylen-Röhrchen (zur Bestimmung der Chemolumineszenz) bei 5 % G02 und 37°C kultiviert.
Nach einstündiger Bebrütung wurden die Kulturen gewaschen, um schwimmende Zellen zu entfernen. Die Chemolumineszenz (Röhrchenkultur) wurde dann direkt bestimmt, während die Petrischalen erneut 24 Stunden bei 37°C bebrütet wurden und danach die Enzym- und Pinozytoseaktivität in den Kulturen bestimmt wurde. Es wurden die nachstehenden Ergebnisse erzielt.
Die quantitative Bestimmung der Pinozytoseaktivität bei mononukleären Phagozyten wurde nach der Methode von Davies et al. durchgeführt (Davies, P. Allison, A.C. und Haswell, A.D.; Biochem. Biophys. Res. Com. 52, 627, 1973). Dazu wurde radioaktives, kolloidales Gold (^198Au) mit einer Partikelgröße von 20 nm und einer spezifischen Aktivität von 4-12 mCl/mg Au benutzt. Die Ergebnisse in Tabelle 4 veranschaulichen den Effekt der nach Beispiel 8 erhaltenen Prüfsubstanz auf die Endozytoseleistung. Die Pinozytose von kolloidalem Gold (^19^8Au) durch Maus-Peritonealmakrophagen von mit der erfindungsgemäßen Verbindung behandelten Tieren ist im Vergleich mit den Makrophagen von unbehandelten Tieren signifikant und dosisabhängig erhöht.

Candida albicans = assay: Therapeutic treatment of a chronic Candida albicans infection (germ counts in urine and kidneys, kidney necrosis); assay type: in vivo, Balb/c-Mäuse; conditions: Tag 30, 60 mg/kg i.p. Tag 3-10
Description: Bei der therapeutischen Behandlung einer chronischen Candida albicans Infektion wurden weibliche Balb/c-Mäuse (15/Gruppe) am Tag 0 intravenös mit Candida albicans (1 x 10^5 CFU/Maus) infiziert. Nach erfolgter Infektion wurden die Tiere an 8 aufeinanderfolgenden Tagen (Tag 3 - 10) mit jeweils 60 mg/kg der Prüfsubstanz (Verbindung nach Ausführungsbeispiel 8) intraperitoneal behandelt. Den Kontrolltieren wurde physiologische Kochsalzlösung injiziert. An den Tagen 8, 14 und 21 wurden den Tieren Urin entnommen und die Keimzahl bestimmt. Am Tag 30 wurden die Tiere getötet und die Keimzahl und die Nekrosenbildung der Nieren bestimmt. Die Tabelle 6 zeigt, daß die Prüfsubstanz bei therapeutischer Gabe deutlich alle Parameter der chronischen Candida albicans Infektion (Keimzahl in Urin und Nieren und Nekrosenbildung) reduziert und damit die Erkrankung therapeutisch beeinflußt. Während bei den Kontrolltieren sich zu einem hohen Prozentsatz Keime im Urin nachweisen lassen, wird bei den behandelten Tieren die Keimzahl signifikant erniedrigt.
Auch die Keimbesiedlung der Nieren wird durch die Therapie von 63 % auf 27 % reduziert, bei einer gleichzeitigen Verringerung der Nekrosenbildung von 87 % auf 10 %.

Cc1nc(SSc2nc(C)c(CC(=O)O)s2)sc1CC(=O)O [Beispiel 8, Bis-(5-Carboxymethyl-4-methyl-thiazol-2-yl)-disulfid]
Pinozytoseleistung von Mausmakrophagen ([1]; 1 x 25 mg/kg intraperitoneal): 0,341 " " x 10^3 cpm
Pinozytoseleistung von Mausmakrophagen ([1]; 1 x 25 mg/kg oral): 0,272 " " x 10^3 cpm
Pinozytoseleistung von Mausmakrophagen ([1]; 1 x 50 mg/kg intraperitoneal): 0,396 " " x 10^3 cpm
Pinozytoseleistung von Mausmakrophagen ([1]; 1 x 50 mg/kg oral): 0,358 " " x 10^3 cpm
Pinozytoseleistung von Mausmakrophagen ([1]; 1 x 100 mg/kg intraperitoneal): 0,462 " " x 10^3 cpm
Pinozytoseleistung von Mausmakrophagen ([1]; 1 x 100 mg/kg oral): 0,416 " " x 10^3 cpm
Pinozytoseleistung von Mausmakrophagen ([1]; 1 x 200 mg/kg intraperitoneal): 0,587 " " x 10^3 cpm
Pinozytoseleistung von Mausmakrophagen ([1]; 1 x 200 mg/kg oral): 0,506 " " x 10^3 cpm
Keimbesiedlung der Nieren (Candida albicans; control 63 %): 27%
Nekrosenbildung (Candida albicans; kidneys, control 87 %): 10%
